# From patent US20230085307A1, “PYRIDAZINONE COMPOUND AND HERBICIDE” (NISSAN CHEMICAL CORPORATION, priority 2019, published 2023)
# How the values were obtained:
# late watergrass = test: Test Example 1: herbicidal activity, application before weed generation under submerged conditions (Table 16, symbol A); format: in vivo, late watergrass (Echinochloa oryzicola); conditions: amount of applied herbicide 320 g/ha
# Method in brief: (§1)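 Submerged Wagner pots (alluvial soil, 4 cm water) sown with weed seeds and planted with 2.5-leaf rice seedlings; emulsifiable concentrate diluted in water applied to water surface on sowing day. Held in greenhouse at 25-30 °C; injury scored 0-5 by herbicidal rate after three weeks.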
# Japanese bulrush = test: Test Example 1: herbicidal activity, application before weed generation under submerged conditions (Table 16, symbol B); format: in vivo, Japanese bulrush (Schoenoplectus juncoides); conditions: amount of applied herbicide 320 g/ha
# Method in brief: as §1
# oval-leafed pondweed = test: Test Example 1: herbicidal activity, application before weed generation under submerged conditions (Table 16, symbol C); format: in vivo, oval-leafed pondweed (Monochoria vaginalis); conditions: amount of applied herbicide 320 g/ha
# Method in brief: as §1
# barnyard grass [1] = test: Test Example 3: herbicidal effect by foliage application, Wagner pot (Table 18, symbol H); format: in vivo, barnyard grass (Echinochloa crus-galli); conditions: 320 g/ha
# Method in brief: (§2)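 Plants were sown in alluvial soil held under 0.1–0.5 cm standing water and grown 14 days in a greenhouse at 25–30 °C. An emulsifiable formulation, water-diluted to the set dose, was then sprayed onto the foliage, and effects were scored three weeks later using previously defined criteria.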
# Chinese sprangletop = test: Test Example 3: herbicidal effect by foliage application, Wagner pot (Table 18, symbol D); format: in vivo, chinese sprangletop (Leptochloa chinensis); conditions: 320 g/ha
# Method in brief: as §2
# rice flat sedge = test: Test Example 3: herbicidal effect by foliage application, Wagner pot (Table 18, symbol E); format: in vivo, rice flat sedge (Cyperus iria); conditions: 320 g/ha
# Method in brief: as §2
# southern crabgrass = test: Test Example 5: herbicidal effect by foliage application, plastic box (Table 20, symbol F); format: in vivo, southern crabgrass (Digitaria ciliaris); conditions: foliage application after 14-day growth, evaluated three weeks after application; for herbicidal effect on F: southern crabgrass (evaluation grade 0-5): 320 g/ha
# Method in brief: (§3)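 Post-emergence foliar test in sterilized diluvial soil. Compound applied as water-diluted emulsion at a predetermined rate to 14-day-old plants; evaluation at three weeks.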
# green foxtail = test: Test Example 5: herbicidal effect by foliage application, plastic box (Table 20, symbol G); format: in vivo, green foxtail (Setaria viridis); conditions: foliage application after 14-day growth, evaluated three weeks after application; for herbicidal effect on G: green foxtail (evaluation grade 0-5): 320 g/ha
# Method in brief: as §3
# barnyard grass [2] = test: Test Example 5: herbicidal effect by foliage application, plastic box (Table 20, symbol H); format: in vivo, barnyard grass (Echinochloa crus-galli); conditions: foliage application after 14-day growth, evaluated three weeks after application; for herbicidal effect on H: barnyard grass (evaluation grade 0-5): 320 g/ha
# Method in brief: as §3
# wild oat = test: Test Example 5: herbicidal effect by foliage application, plastic box (Table 20, symbol I); format: in vivo, wild oat (Avena fatua); conditions: foliage application after 14-day growth, evaluated three weeks after application; for herbicidal effect on I: wild oat (evaluation grade 0-5): 320 g/ha
# Method in brief: as §3
# blackgrass = test: Test Example 5: herbicidal effect by foliage application, plastic box (Table 20, symbol J); format: in vivo, blackgrass (Alopecurus myosuroides); conditions: foliage application after 14-day growth, evaluated three weeks after application; for herbicidal effect on J: blackgrass (evaluation grade 0-5): 320 g/ha
# Method in brief: as §3
# Italian ryegrass = test: Test Example 5: herbicidal effect by foliage application, plastic box (Table 20, symbol K); format: in vivo, Italian ryegrass (Lolium multiflorum); conditions: foliage application after 14-day growth, evaluated three weeks after application; for herbicidal effect on K: Italian ryegrass (evaluation grade 0-5): 320 g/ha
# Method in brief: as §3
# windgrass = test: Test Example 5: herbicidal effect by foliage application, plastic box (Table 20, symbol L); format: in vivo, windgrass (Apera spica-venti); conditions: foliage application after 14-day growth, evaluated three weeks after application; for herbicidal effect on L: windgrass (evaluation grade 0-5): 320 g/ha
# Method in brief: as §3
# velvetleaf = test: Test Example 5: herbicidal effect by foliage application, plastic box (Table 20, symbol M); format: in vivo, velvetleaf (Abutilon theophrasti); conditions: foliage application after 14-day growth, evaluated three weeks after application; for herbicidal effect on M: velvetleaf (evaluation grade 0-5): 320 g/ha
# Method in brief: as §3
# redroot pigweed = test: Test Example 5: herbicidal effect by foliage application, plastic box (Table 20, symbol N); format: in vivo, redroot pigweed (Amaranthus retroflexus); conditions: foliage application after 14-day growth, evaluated three weeks after application; for herbicidal effect on N: redroot pigweed (evaluation grade 0-5): 320 g/ha
# Method in brief: as §3
# lambsquarters = test: Test Example 5: herbicidal effect by foliage application, plastic box (Table 20, symbol O); format: in vivo, lambsquarters (Chenopodium album); conditions: foliage application after 14-day growth, evaluated three weeks after application; for herbicidal effect on O: lambsquarters (evaluation grade 0-5): 320 g/ha
# Method in brief: as §3
# chickweed = test: Test Example 5: herbicidal effect by foliage application, plastic box (Table 20, symbol P); format: in vivo, common chickweed (Stellaria media); conditions: foliage application after 14-day growth, evaluated three weeks after application; for herbicidal effect on P: chickweed (evaluation grade 0-5): 320 g/ha
# Method in brief: as §3
# persian speedwell = test: Test Example 5: herbicidal effect by foliage application, plastic box (Table 20, symbol R); format: in vivo, Persian speedwell (Veronica persica); conditions: foliage application after 14-day growth, evaluated three weeks after application; for herbicidal effect on R: persian speedwell (evaluation grade 0-5): 320 g/ha
# Method in brief: as §3
# [3] = amount of applied herbicide 320 g/ha
SMILES,"Herbicidal effect, A: late watergrass (late watergrass)","Herbicidal effect, B: Japanese bulrush (Japanese bulrush)","Herbicidal effect, C: oval-leafed pondweed (oval-leafed pondweed)",herbicidal effect on barnyard grass (H) (barnyard grass [1]),herbicidal effect on Chinese sprangletop (D) (Chinese sprangletop),herbicidal effect on rice flat sedge (E) (rice flat sedge),herbicidal effect on F: southern crabgrass (evaluation grade 0-5) (southern crabgrass),herbicidal effect on G: green foxtail (evaluation grade 0-5) (green foxtail),herbicidal effect on H: barnyard grass (evaluation grade 0-5) (barnyard grass [2]),herbicidal effect on I: wild oat (evaluation grade 0-5) (wild oat),herbicidal effect on J: blackgrass (evaluation grade 0-5) (blackgrass),herbicidal effect on K: Italian ryegrass (evaluation grade 0-5) (Italian ryegrass),herbicidal effect on L: windgrass (evaluation grade 0-5) (windgrass),herbicidal effect on M: velvetleaf (evaluation grade 0-5) (velvetleaf),herbicidal effect on N: redroot pigweed (evaluation grade 0-5) (redroot pigweed),herbicidal effect on O: lambsquarters (evaluation grade 0-5) (lambsquarters),herbicidal effect on P: chickweed (evaluation grade 0-5) (chickweed),herbicidal effect on R: persian speedwell (evaluation grade 0-5) (persian speedwell),also measured
COc1ccc2c(-c3c(OCC#N)c(C)nn(C)c3=O)c(-c3ccccc3OC)sc2c1 [3-153],3 (Herbicidal rate of 40% or more and less than 70%),3 (Herbicidal rate of 40% or more and less than 70%),3 (Herbicidal rate of 40% or more and less than 70%),5 (Herbicidal rate of 90% or more (almost completely withered)),2 (Herbicidal rate of 20% or more and less than 40%),0 (Herbicidal rate of 5% or less (almost no effect)),3 (Herbicidal rate of 40% or more and less than 70%),5 (Herbicidal rate of 90% or more (almost completely withered)),5 (Herbicidal rate of 90% or more (almost completely withered)),0 (Herbicidal rate of 5% or less (almost no effect)),3 (Herbicidal rate of 40% or more and less than 70%),0 (Herbicidal rate of 5% or less (almost no effect)),4 (Herbicidal rate of 70% or more and less than 90%),5 (Herbicidal rate of 90% or more (almost completely withered)),4 (Herbicidal rate of 70% or more and less than 90%),4 (Herbicidal rate of 70% or more and less than 90%),5 (Herbicidal rate of 90% or more (almost completely withered)),4 (Herbicidal rate of 70% or more and less than 90%),
COc1ccc(-c2sc3c(F)cccc3c2-c2c(O)c(C)nn(C)c2=O)cc1OC [4-013],3 (Herbicidal rate of 40% or more and less than 70%),0 (Herbicidal rate of 5% or less (almost no effect)),3 (Herbicidal rate of 40% or more and less than 70%),3 (Herbicidal rate of 40% or more and less than 70%),3 (Herbicidal rate of 40% or more and less than 70%),4 (Herbicidal rate of 70% or more and less than 90%),1 (Herbicidal rate of 5% or more and less than 20%),5 (Herbicidal rate of 90% or more (almost completely withered)),1 (Herbicidal rate of 5% or more and less than 20%),0 (Herbicidal rate of 5% or less (almost no effect)),3 (Herbicidal rate of 40% or more and less than 70%),4 (Herbicidal rate of 70% or more and less than 90%),0 (Herbicidal rate of 5% or less (almost no effect)),3 (Herbicidal rate of 40% or more and less than 70%),0 (Herbicidal rate of 5% or less (almost no effect)),0 (Herbicidal rate of 5% or less (almost no effect)),5 (Herbicidal rate of 90% or more (almost completely withered)),5 (Herbicidal rate of 90% or more (almost completely withered)),
Cc1nn(C)c(=O)c(-c2c(-c3cccc4c3OCC4)sc3c(Cl)cccc23)c1O [4-098],3 (Herbicidal rate of 40% or more and less than 70%),0 (Herbicidal rate of 5% or less (almost no effect)),0 (Herbicidal rate of 5% or less (almost no effect)),4 (Herbicidal rate of 70% or more and less than 90%),3 (Herbicidal rate of 40% or more and less than 70%),3 (Herbicidal rate of 40% or more and less than 70%),,,,,,,,,,,,,"Herbicidal effect by foliage application, F: southern crabgrass (southern crabgrass; [3]): 3 (Herbicidal rate of 40% or more and less than 70%); Herbicidal effect by foliage application, G: green foxtail (green foxtail; [3]): 3 (Herbicidal rate of 40% or more and less than 70%); Herbicidal effect by foliage application, H: barnyard grass (barnyard grass [2]; [3]): 1 (Herbicidal rate of 5% or more and less than 20%); Herbicidal effect by foliage application, I: wild oat (wild oat; [3]): 0 (Herbicidal rate of 5% or less (almost no effect)); Herbicidal effect by foliage application, J: blackgrass (blackgrass; [3]): 0 (Herbicidal rate of 5% or less (almost no effect)); Herbicidal effect by foliage application, K: Italian ryegrass (Italian ryegrass; [3]): 0 (Herbicidal rate of 5% or less (almost no effect)); Herbicidal effect by foliage application, L: windgrass (windgrass; [3]): 2 (Herbicidal rate of 20% or more and less than 40%); Herbicidal effect by foliage application, M: velvetleaf (velvetleaf; [3]): 3 (Herbicidal rate of 40% or more and less than 70%); Herbicidal effect by foliage application, N: redroot pigweed (redroot pigweed; [3]): 3 (Herbicidal rate of 40% or more and less than 70%); Herbicidal effect by foliage application, O: lambsquarters (lambsquarters; [3]): 3 (Herbicidal rate of 40% or more and less than 70%); Herbicidal effect by foliage application, P: chickweed (chickweed; [3]): 5 (Herbicidal rate of 90% or more (almost completely withered)); Herbicidal effect by foliage application, R: persian speedwell (persian speedwell; [3]): 5 (Herbicidal rate of 90% or more (almost completely withered))"
